Reference: patent US4640916A, “1,4-benzothiazine derivatives, compositions containing them and method of use” (priority 1984, dated 1987)
Where a name gives a salt, the structure may show the parent alone.

Columns and labels:
[1] = system: intracellular Ca^++; settings: (2) Ca++ from intracellular store site; (3) Ca++ through receptor-dependent channel; cited from earlier work
[2] = in vivo; cited from earlier work
[3] = system: ischemia-reperfusion-induced ventricular arrythmia in rats; assay: Effect on the ischemia-reperfusion-induced ventricular arrhythmia in rats; format: in vivo, Sprague-Dawley rats; settings: p.o.; for Incidence of cardiac arrest (CA), rats affected/rats used / Incidence of ventricular fibrillation (VF), rats affected/rats used / Incidence of ventricular tachycardia (VT), rats affected/rats used: 10 min after reperfusion; for Effect on incidences of VT, VF and CA (in words): Ex. 48 at 1, 3 and 10 mg/kg, Ex. 46 at 0.3, 1, 3 and 10 mg/kg
Protocol: Male Sprague-Dawley rats, 9 to 10 week old, were orally given the compounds or tap water at a volume of 5 ml/kg. After 1 hour, rats were anesthetized with sodium pentobarbital (50 mg/kg, i.p.), and left anterior descending coronary artery was occluded for 5 min. with a silk thread under ventilation. The incidences of ventricular tachycardia (VT), ventricular fibrilation (VF) and cardiac arrest (CA) occurred for 10 min. after reperfusion of the blood were calculated.

[4] = system: ischemic acute renal failure in rats; assay: Effect on the ischemic acute renal failure in rats; format: in vivo, Sprague-Dawley rats; settings: for Plasma urea nitrogen (BUN): p.o., 24 h after reperfusion; for Effect on the increase in BUN (in words): Ex. 48 at 10 mg/kg, Ex. 46 at 1 and 3 mg/kg
Protocol: The left renal artery of male Sprague-Dawley rats, 6 week old, was clamped for 1 hour under anesthesia with sodium pentobarbital (50 mg/kg, i.p.). The compounds or water was orally given 1 hour before the occlusion. The compounds were again given 20 hour after the reperfusion of the blood. Twenty four hour after the reperfusion, the blood was obtained from the abdominal aorta under anesthesia for measurement of plasma urea nitrogen (BUN).

[5] = system: ischemic seizure induced by bilateral carotid artery occlusion; assay: Effect on the ischemic seizure induced by bilateral carotid artery occlusion in spontaneously hypertensive rats; format: in vivo; settings: p.o.; for Time toward ischemic seizure: 1 h before occlusion; for Effect on time of the beginning of the ischemic seizure (in words): Ex. 48 at 1, 3 and 10 mg/kg, Ex. 46 at 0.3, 1 and 3 mg/kg
Protocol: Male spontaneously hypertensive rats, 20 to 22 week old, were orally given the compounds or tap water at a volume of 5 ml/kg. After 1 hour, the carotid artery was bilaterally occluded by use of silk thread under anesthesia with sodium pentobarbital (50 mg/kg, i.p.). The length of time until the ischemic seizure such as convulsion and jumping was observed was measured, immediately after the occlusion of carotid artery.

[6] = cited from earlier work
[7] = system: contraction depending on intracellular Ca^++; assay: Intracellular Ca++ antagonism: inhibition of phenylephrine contraction of aorta strip in Ca++-free EGTA solution; format: cell-based, rabbit; settings: Oryctolagus cuniculus, phenylephrine 10^-6 M, Ca++ 0 mM, EGTA 5 mM, read-out: Inhibitory percent (contraction depending on intracellular Ca++)
Protocol: A spiral strip of aorta of a rabbit (2-3 mm width, about 3 cm length) was allowed to equilibrate by hanging under 2 g force in a Krebs-Henseleit solution. The solution was saturated with a mixture gas 97% O2 --3% CO2, which was warmed to 37° C. The strip was moved into another Krebs-Henseleit solution containing Ca^++ OmM and EGTA 5 mM. Five minutes later, phenylephrine (10^-6 M) was added on the solution. The resulting contraction of the strip was made as the index of the contraction depending on intracellular Ca^++.

[8] = system: spontaneously hypertensive rats; assay: Antihypertensive action in spontaneously hypertensive rats (tail-cuff); format: in vivo; settings: 1 h after administration
Protocol: Male 12 to 13 weeks old spontaneously hypertensive rats with about 200 mm Hg of blood pressure were used in groups of 3 individuals. Mean arterial blood pressures of these animals were measured by the tail-cuff method, then the animals were orally given 3-60 mg/kg of each test compound of this invention as 2 ml of its suspension in gum arabic. Blood pressure measurements were made again one hour after administration of each test compound.

[9] = system: contraction of the aorta strip caused by serotonin (5--HT); assay: Vasodilating action: inhibition of contraction of rabbit aorta strip caused by serotonin (5-HT); format: cell-based; settings: Oryctolagus cuniculus, compound 10^-5 M, 5-HT 10^-6 M, 15 min pretreatment, read-out: Inhibitory percent against contraction, 5-HT
Protocol: (§1) A spiral strip of aorta of a rabbit (2-3 mm width, about 3 cm length) was allowed to equilibrate by hanging under 2 g force in a Krebs-Henseleit solution. The solution was saturated with a mixture gas of 97% O2 --3% CO2 which was warmed to 37° C. Inhibitory actions of compounds (10^-5 M) of this invention against contraction of the aorta strip caused by KCl (60 mM), norepinephrine (NE) (10^-6 M) or serotonin (5--HT) (10^-6 M), by treating the strip with a compound of this invention 15 minutes before the test, are shown in Table 1 as inhibitory percent.

[10] = system: contraction of the aorta strip caused by KCl; assay: Vasodilating action: inhibition of contraction of rabbit aorta strip caused by KCl; format: cell-based; settings: Oryctolagus cuniculus, compound 10^-5 M, KCl 60 mM, 15 min pretreatment, read-out: Inhibitory percent against contraction, KCl
Protocol: as §1

[11] = system: contraction of the aorta strip caused by norepinephrine (NE); assay: Vasodilating action: inhibition of contraction of rabbit aorta strip caused by norepinephrine (NE); format: cell-based; settings: Oryctolagus cuniculus, 0.25 h, compound 10^-5 M, NE 10^-6 M, 15 min pretreatment, read-out: Inhibitory percent against contraction, NE
Protocol: as §1

[12] = 3 mg/kg, control 20.3 ± 0.6 (Ex. 48), 25.1 ± 0.8 (Ex. 46)
[13] = 1 mg/kg, control 139 ± 9 (Ex. 48), 150 ± 6 (Ex. 46)
[14] = 3 mg/kg, control 152 ± 14 (Ex. 48), 150 ± 6 (Ex. 46)

NCCCCCCNS(=O)(=O)c1cccc2c(Cl)cccc12 [Example W-7]
Action on intracellular Ca++ (in words) [1]: weak in their action

COC(=O)C1=C(C)NC(C)=C(C(=O)OC)C1c1ccccc1[N+](=O)[O-] [nifedipine]
Action on intracellular Ca++ (in words) [1]: hardly acts on (2) and (3)

CN1CCN(CCCN2c3ccccc3Sc3ccc(C(F)(F)F)cc32)CC1 [trifluoperazine]
Action on intracellular Ca++ (in words) [1]: showing antagonism against intracellular Ca^++ | Side effects of known drugs (in words) [2]: side effects e.g. on the central nervous system

Cc1cccc2c1NC(=O)C(CCCN1CCN(c3ccc(F)cc3)CC1)S2 (stereo not shown) [Example 48, 2-[3-[4-(4-fluorophenyl)-1-piperazinyl]propyl]-5-methyl-2H-1,4-benzothiazin-3(4H)-one]
Incidence of cardiac arrest (CA), rats affected/rats used ([3]; 1 mg/kg): 3/10 | Incidence of ventricular fibrillation (VF), rats affected/rats used ([3]; 1 mg/kg): 5/10 | Incidence of ventricular tachycardia (VT), rats affected/rats used ([3]; 1 mg/kg): 7/10 | Incidence of cardiac arrest (CA), rats affected/rats used ([3]; 3 mg/kg): 1/9 | Incidence of ventricular fibrillation (VF), rats affected/rats used ([3]; 3 mg/kg): 3/9 | Incidence of ventricular tachycardia (VT), rats affected/rats used ([3]; 3 mg/kg): 4/9 | Incidence of cardiac arrest (CA), rats affected/rats used ([3]; 10 mg/kg): 0/6 | Incidence of ventricular fibrillation (VF), rats affected/rats used ([3]; 10 mg/kg): 1/6 | Incidence of ventricular tachycardia (VT), rats affected/rats used ([3]; 10 mg/kg): 1/6 | Effect on incidences of VT, VF and CA (in words) [3]: inhibited the incidences of VT, VF and CA in a dose-dependent manner | Plasma urea nitrogen (BUN) [4, 12]: 18.9 ± 0.6 mg/dL | Plasma urea nitrogen (BUN) ([4]; 10 mg/kg, control 22.8 ± 1.0): 16.9 ± 0.7 mg/dL | Effect on the increase in BUN (in words) [4]: inhibited the increase in BUN | Time toward ischemic seizure [5, 13]: 167 ± 8 min | Time toward ischemic seizure [5, 14]: 214 ± 22 min | Time toward ischemic seizure ([5]; 10 mg/kg, control 132 ± 14): 275 ± 22 min | Effect on time of the beginning of the ischemic seizure (in words) [5]: prolonged the time of the beginning of the ischematic seizure in a dose-dependent manner

CCN(CC)CCCCCCCCOC(=O)c1cc(OC)c(OC)c(OC)c1 [TMB-8]
Action on intracellular Ca++ (in words) [1]: weak in their action | Antihypertensive action in vivo (in words) [6]: do not display antihypertensive action in vivo | inhibition at 100 µM ([7]; compound 10^-4 M): 58%

COc1cc2nc(N3CCN(C(=O)c4ccco4)CC3)nc(N)c2cc1OC [prazosin]
Side effects of known drugs (in words) [2]: orthostatic hypotension often observed

O=C1Nc2cc3c(cc2SC1CCCN1CCN(c2ccc(F)cc2)CC1)CCC3 (stereo not shown) [Example 46, 6,7-cyclopenteno-2-[3-[4-(4-fluorophenyl)-1-piperazinyl]propyl]-2H-1,4-benzothiazin-3(4H)-one.hydrochloride]
Incidence of cardiac arrest (CA), rats affected/rats used ([3]; 0.3 mg/kg): 9/19 | Incidence of ventricular fibrillation (VF), rats affected/rats used ([3]; 0.3 mg/kg): 9/19 | Incidence of ventricular tachycardia (VT), rats affected/rats used ([3]; 0.3 mg/kg): 12/19 | Incidence of cardiac arrest (CA), rats affected/rats used ([3]; 1 mg/kg): 0/12 | Incidence of ventricular fibrillation (VF), rats affected/rats used ([3]; 1 mg/kg): 5/12 | Incidence of ventricular tachycardia (VT), rats affected/rats used ([3]; 1 mg/kg): 7/12 | Incidence of cardiac arrest (CA), rats affected/rats used ([3]; 3 mg/kg): 0/12 | Incidence of ventricular fibrillation (VF), rats affected/rats used ([3]; 3 mg/kg): 2/12 | Incidence of ventricular tachycardia (VT), rats affected/rats used ([3]; 3 mg/kg): 5/12 | Incidence of cardiac arrest (CA), rats affected/rats used ([3]; 10 mg/kg): 0/4 | Incidence of ventricular fibrillation (VF), rats affected/rats used ([3]; 10 mg/kg): 1/4 | Incidence of ventricular tachycardia (VT), rats affected/rats used ([3]; 10 mg/kg): 1/4 | Effect on incidences of VT, VF and CA (in words) [3]: inhibited the incidences of VT, VF and CA in a dose-dependent manner | Plasma urea nitrogen (BUN) ([4]; 1 mg/kg, control 20.4 ± 0.4): 18.0 ± 0.7 mg/dL | Plasma urea nitrogen (BUN) [4, 12]: 19.6 ± 0.8 mg/dL | Effect on the increase in BUN (in words) [4]: inhibited the increase in BUN | Antihypertensive effect (difference of blood pressure before and after medication) ([8]; 3 mg/Kg oral): 33 ΔmmHg | Time toward ischemic seizure ([5]; 0.1 mg/kg, control 153 ± 8): 167 ± 13 min | Time toward ischemic seizure ([5]; 0.3 mg/kg, control 143 ± 7): 190 ± 11 min | Time toward ischemic seizure [5, 13]: 217 ± 11 min | Time toward ischemic seizure [5, 14]: 279 ± 18 min | Effect on time of the beginning of the ischemic seizure (in words) [5]: prolonged the time of the beginning of the ischematic seizure in a dose-dependent manner

Cc1cccc2c1NC(=O)C(CCCN1CCN(c3ccc(F)cc3)CC1)S2 (stereo not shown) [Example 12, 2-[3-[4-(4-fluorophenyl)-1-piperazinyl]propyl]-5-methyl-2H-1,4-benzothiazin-3(4H)-one]
inhibition at 10 µM [9]: 96% | Antihypertensive effect (difference of blood pressure before and after medication) ([8]; 60 mg/Kg oral): 49 ΔmmHg | inhibition at 10 µM [10]: 41% | inhibition at 10 µM [11]: 100% | inhibition at 1 µM ([7]; compound 10^-6 M): 100%
